The compounds below were run against T1, human full-length recombinant PKC βII (Homo sapiens, UniProt P05771) (assay: Determination of PKC βII inhibition (Caliper mobility-shift kinase assay, phosphorylation of fluorescein peptide substrate)). Conditions: final compound concentration 1.14 µM (±0.15 µM); 60 min incubation at 32 °C.
T1 construct: Active human full-length recombinant PKC βII; purchased Invitrogen GmbH, Darmstadt, Germany
Format: biochemical
In short: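 Active full-length PKC βII in pH 7.4 Hepes with MgCl2, CaCl2, PS, DAG and Triton X-100; substrate/ATP mix held 3 µM fluorescein peptide and 120 µM ATP before addition. Reaction ran 60 min at 32 °C, stopped with EDTA. Mobility-shift fractional turnover gave % inhibition at 1.14 µM (±0.15 µM) final compound.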

T1 sequence (P05771 1-673 isoform P05771-2): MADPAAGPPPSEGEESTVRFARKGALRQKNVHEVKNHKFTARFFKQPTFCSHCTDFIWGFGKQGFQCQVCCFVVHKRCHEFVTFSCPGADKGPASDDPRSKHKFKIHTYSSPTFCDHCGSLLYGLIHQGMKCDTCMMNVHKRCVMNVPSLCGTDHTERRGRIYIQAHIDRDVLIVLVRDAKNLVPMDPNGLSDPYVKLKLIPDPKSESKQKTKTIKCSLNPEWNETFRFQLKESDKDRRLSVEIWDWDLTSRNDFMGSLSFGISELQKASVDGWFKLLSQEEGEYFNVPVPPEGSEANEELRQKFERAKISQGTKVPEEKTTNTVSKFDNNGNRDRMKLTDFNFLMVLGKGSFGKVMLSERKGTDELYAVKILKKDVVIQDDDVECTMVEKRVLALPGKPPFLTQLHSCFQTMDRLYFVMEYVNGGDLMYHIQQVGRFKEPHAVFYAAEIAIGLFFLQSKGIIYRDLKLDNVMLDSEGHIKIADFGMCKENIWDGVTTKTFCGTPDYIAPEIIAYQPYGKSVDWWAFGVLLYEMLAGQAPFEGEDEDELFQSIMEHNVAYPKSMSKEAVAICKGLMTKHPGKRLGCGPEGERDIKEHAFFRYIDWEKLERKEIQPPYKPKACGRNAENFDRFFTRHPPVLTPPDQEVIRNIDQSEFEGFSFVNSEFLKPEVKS

Question: Which inhibition at 1.14 µM does the source give for `COc1ccccc1/C=C/c1n[nH]c2nc(-c3ccc(O)cc3)cc(C(=O)N3CCNCC3)c12` [Example 60, {6-(4-hydroxy-phenyl)-3-[(E)-2-(2-methoxy-phenyl)-vinyl]-1H-pyrazolo[3,4-b]pyridin-4-yl}-piperazin-1-yl-methanone] here?
Answer: 98%

Question: Which inhibition at 1.14 µM does the source give for `O=C(c1cc(-c2ccc(O)cc2)nc2[nH]nc(/C=C/c3ccccc3)c12)N1CCNC[C@@H]1CO` [Example 16, ((R)-2-Hydroxymethyl-piperazin-1-yl)-[6-(4-hydroxy-phenyl)-3-((E)-styryl)-1H-pyrazolo[3,4-b]pyridin-4-yl]-methanone] here?
Answer: 96%

Question: `O=C(c1cc(-c2ccc(O)c(F)c2)nc2[nH]nc(/C=C/c3ccccc3)c12)N1CCNCC1` [Example 12, [6-(3-Fluoro-4-hydroxy-phenyl)-3-((E)-styryl)-1H-pyrazolo[3,4-b]pyridin-4-yl]-piperazin-1-yl-methanone] was tested. Which inhibition at 1.14 µM did it give?
Answer: 97%

Question: `COCCC(=O)N1CCN(C(=O)c2cc(-c3ccc(O)cc3)nc3[nH]nc(/C=C/c4ccccc4)c23)CC1` [Example 88, 1-{4-[6-(4-Hydroxy-phenyl)-3-((E)-styryl)-1H-pyrazolo[3,4-b]-pyridine-4-carbonyl]-piperazin-1-yl}-3-methoxy-propan-1-one] was tested. Which inhibition at 1.14 µM did it give?
Answer: 89%

Question: With `CCCC[C@H]1CNCCN1C(=O)c1cc(-c2ccc(O)cc2)nc2[nH]nc(/C=C/c3ccccc3)c12` [Example 76, ((S)-2-Butyl-piperazin-1-yl)-[6-(4-hydroxy-phenyl)-3-((E)-styryl)-1H-pyra-zolo[3,4-b]-pyridin-4-yl]-methanone] as the compound, how does the inhibition at 1.14 µM read?
Answer: 57%

Question: How did the inhibition at 1.14 µM turn out when `O=C(c1cc(-c2ccc(O)cc2)nc2[nH]nc(/C=C/c3cccc4c3NCC4)c12)N1CCNCC1` [Example 33, [3-[(E)-2-(2,3-Dihydro-1H-indol-7-yl)-vinyl]-6-(4-hydroxyphenyl)-1H-pyrazolo[3,4-b]-pyridin-4-yl]-piperazin-1-yl-methanone] was run?
Answer: 99%

Question: Which inhibition at 1.14 µM does the source give for `O=C(c1ccc(/C=C/c2n[nH]c3nc(-c4ccc(O)cc4)cc(C(=O)N4CCNCC4)c23)cc1)N1CCCCC1` [Example 19, (6-(4-Hydroxy-phenyl)-3-{(E)-2-[4-(piperidine-1-carbonyl)-phenyl]-vinyl}-1Hpyrazolo[3,4-b]pyridin-4-yl)-piperazin-1-yl-methanone] here?
Answer: 99%

Question: `O=C(c1cc(-c2ccc(O)cc2)nc2[nH]nc(/C=C/c3cccc(N4CCOCC4)c3)c12)N1CCNCC1` [Example 27, {6-(4-Hydroxy-phenyl)-3-[(E)-2-(3-morpholin-4-yl-phenyl)-vinyl]-1H-pyrazolo[3,4-b]pyridin-4-yl}-piperazin-1-yl-methanone] was tested. Which inhibition at 1.14 µM did it give?
Answer: 98%

Question: For `CC(C)C[C@H]1CN(C(=O)c2cc(-c3ccc(O)cc3)nc3[nH]nc(/C=C/c4ccccc4)c23)CCN1` [Example 5, [6-(4-Hydroxy-phenyl)-3-((E)-styryl)-1H-pyrazolo[3,4-b]pyridin-4-yl]-((S)-3-isobutyl-piperazin-1-yl)-methanone], which inhibition at 1.14 µM is on record?
Answer: 85%

Question: With `O=C(c1cc(-c2ccc(O)cc2)nc2[nH]nc(/C=C/c3ccccc3)c12)N1CCN(C2CC2)CC1` [Example 85, (4-Cyclopropyl-piperazin-1-yl)-[6-(4-hydroxy-phenyl)-3-((E)-styryl)-1H-pyra-zolo[3,4-b]py-ridin-4-yl]-methanone] as the compound, how does the inhibition at 1.14 µM read?
Answer: 19%

Question: `O=C(c1cc(-c2ccc(O)cc2)nc2[nH]nc(/C=C/c3cccc(N4CCCC4)c3)c12)N1CCNCC1` [Example 28, {6-(4-Hydroxy-phenyl)-3-[(E)-2-(3-pyrrolidin-1-yl-phenyl)-vinyl]-1H-pyrazolo[3,4-b]pyridin-4-yl}-piperazin-1-yl-methanone] was tested. Which inhibition at 1.14 µM did it give?
Answer: 94%

Question: With `O=C(c1cc(-c2ccc(O)cc2)nc2[nH]nc(/C=C/c3ccc4c(c3)CCO4)c12)N1CCNCC1` [Example 64, [3-[(E)-2-(2,3-Dihydrobenzofuran-5-yl)-vinyl]-6-(4-hydroxy-phenyl)-1H-pyrazolo[3,4-b]pyridin-4-yl]-piperazin-1-yl-methanone] as the compound, how does the inhibition at 1.14 µM read?
Answer: 99%

Question: With `Cc1cc(F)ccc1/C=C/c1n[nH]c2nc(-c3ccc(O)cc3)cc(C(=O)N3CCNCC3)c12` [Example 61, [3-[(E)-2-(4-Fluoro-2-methyl-phenyl)-vinyl]-6-(4-hydroxy-phenyl)-1H-pyrazolo[3,4-b]pyridin-4-yl]-piperazin-1-yl-methanone] as the compound, how does the inhibition at 1.14 µM read?
Answer: 86%

Question: With `O=C(c1cc(-c2ccc(O)cc2)nc2[nH]nc(/C=C/c3ccc(Cl)c(Cl)c3)c12)N1CCNCC1` [Example 45, [3-[(E)-2-(3,4-Dichloro-phenyl)-vinyl]-6-(4-hydroxy-phenyl)-1H-pyrazolo[3,4-b]pyridin-4-yl]-piperazin-1-yl-methanone] as the compound, how does the inhibition at 1.14 µM read?
Answer: 61%

Question: Which inhibition at 1.14 µM does the source give for `O=C(c1cc(-c2ccc(O)cc2)nc2[nH]nc(/C=C/c3ccccc3F)c12)N1CCNCC1` [Example 72, [3-[(E)-2-(2-Fluoro-phenyl)-vinyl]-6-(4-hydroxy-phenyl)-1H-pyrazolo[3,4-b]pyridin-4-yl]-piperazin-1-yl-methanone] here?
Answer: 99%

Question: With `Cc1cc(O)ccc1-c1cc(C(=O)N2CCNCC2)c2c(/C=C/c3ccccc3)n[nH]c2n1` [Example 7, [6-(4-Hydroxy-2-methyl-phenyl)-3-((E)-styryl)-1H-pyrazolo[3,4-b]pyridin-4-yl]-piperazin-1-yl-methanone] as the compound, how does the inhibition at 1.14 µM read?
Answer: 96%
